Values quoted from earlier work in patent publication US7611833B2, “Yeast genes that affect viral replication” (priority 2001, dated 2009).
Like-named read-outs stand apart in the source and are kept apart here.

What was measured:
poliovirus [1] = tested on: poliovirus
poliovirus [2] = tested on: poliovirus; remark: listed apart in the source
poliovirus [3] = tested on: poliovirus; remark: listed apart in the source
HeLa cells = HeLa cells treated with oleic acid

Row | SMILES | RNA replication by poliovirus (poliovirus [1]) | RNA replication by the alphavirus SFV (alphavirus SFV) | In vitro translation (poliovirus [2]) | Poliovirus RNA replication (poliovirus [2]) | Poliovirus RNA replication (poliovirus [3]) | Synthesis of lipids (HeLa cells)
1 | C/C=C/C/C=C/CCC(=O)[C@H]1O[C@H]1C(N)=O [Cerulenin] | inhibits RNA replication | inhibits RNA replication |  |  |  | 
2 | CCCCCCCC/C=C\CCCCCCCC(=O)O [oleic acid] |  |  | inhibited in vitro translation | disrupts poliovirus RNA replication | disrupts poliovirus RNA replication | major changes in the synthesis of many lipids
